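Here, GI50 denotes the concentration required for 50% inhibition of growth. TGI denotes the concentration required for complete inhibition of growth.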
Assays:
Assay in all cases: DTP human tumour cell line panel, 384-well format
[1] = test system: HCT-116 colon
[2] = test system: HCC-2998 colon
[3] = test system: SW-620 colon
[4] = test system: SK-MEL-28 melanoma
[5] = test system: NCI/ADR-RES ovarian
[6] = test system: SNB-75 CNS
[7] = test system: OVCAR-4 ovarian
[8] = test system: LOX IMVI melanoma
[9] = test system: UACC-257 melanoma
[10] = test system: DU-145 prostate
[11] = test system: SF-295 CNS
[12] = test system: NCI-H23 lung
[13] = test system: HOP-62 NSCLC
[14] = test system: UACC-62 melanoma
[15] = test system: A549 NSCLC
[16] = test system: UO-31 renal
[17] = test system: U251 glioblastoma
[18] = test system: HCT-15 colon
[19] = test system: A498 renal
[20] = test system: SK-OV-3 ovarian
[21] = test system: SNB-19 CNS
[22] = test system: M14 melanoma
[23] = test system: NCI-H460 NSCLC
[24] = test system: NCI-H322M lung
[25] = test system: PC-3 prostate
[26] = test system: EKVX NSCLC
[27] = test system: MDA-MB-468 breast
[28] = test system: RPMI-8226 leukemia
[29] = test system: CAKI-1 renal
[30] = test system: HOP-92 NSCLC
[31] = test system: SF-539 CNS
[32] = test system: MALME-3M melanoma
[33] = test system: MOLT-4 leukemia
[34] = test system: SF-268 CNS
[35] = test system: SK-MEL-5 melanoma
[36] = test system: HS 578T breast
[37] = test system: IGROV1 ovarian
[38] = test system: MDA-MB-435 melanoma
[39] = test system: K-562 leukemia
[40] = test system: ACHN renal
[41] = test system: BT-549 breast
[42] = test system: MDA-MB-231 breast
[43] = test system: OVCAR-3 ovarian
[44] = test system: OVCAR-8 ovarian
[45] = test system: RXF 393 renal
[46] = test system: NCI-H226 lung
[47] = test system: 786-0 renal
[48] = test system: KM12 colon
[49] = test system: MCF7 breast
[50] = test system: CCRF-CEM leukemia
[51] = test system: SN12C renal
[52] = test system: T-47D breast
[53] = test system: COLO 205 colon
[54] = test system: TK-10 renal
[55] = test system: HT29 colon
[56] = test system: NCI-H522 lung
[57] = test system: HL-60(TB) leukemia
[58] = test system: OVCAR-5 ovarian
[59] = test system: SR leukemia

Q: Which results are given for `Nc1nc2cc(CC[C@H]3C[C@@H](n4ccc5c(N)ncnc54)[C@H](O)[C@@H]3O)ccc2cc1Br`?
A: GI50 [1]: 1.66 µM; TGI [1]: 15.5 µM; GI50 [2]: 10.5 µM; TGI [2]: 22.5 µM; GI50 [3]: 11.8 µM; TGI [3]: 24.1 µM; GI50 [4]: 18.2 µM; TGI [4]: 32.2 µM; GI50 [5]: 5.73 µM; TGI [5]: 18.6 µM; GI50 [6]: 1.95 µM; TGI [6]: 16.5 µM; GI50 [7]: 0.4 µM; TGI [7]: 19 µM; GI50 [8]: 0.579 µM; TGI [8]: 12.2 µM; GI50 [9]: 1.42 µM; TGI [9]: 11.5 µM; GI50 [10]: 13.4 µM; TGI [10]: 26.5 µM; GI50 [11]: 12.4 µM; TGI [11]: 25.2 µM; GI50 [12]: 0.392 µM; TGI [12]: 18.8 µM; GI50 [13]: 0.37 µM; TGI [13]: 12.1 µM; GI50 [14]: 11.5 µM; TGI [14]: 23.7 µM; GI50 [15]: 0.644 µM; TGI [15]: 15.8 µM; GI50 [16]: 11.9 µM; TGI [16]: 24.4 µM; GI50 [17]: 5.85 µM; TGI [17]: 20.3 µM; GI50 [18]: 9.52 µM; TGI [18]: 21.8 µM; GI50 [19]: 2.11 µM; TGI [19]: 11.8 µM; GI50 [20]: 12 µM; TGI [20]: 24.5 µM; GI50 [21]: 11.5 µM; TGI [21]: 23.9 µM; GI50 [22]: 10.6 µM; TGI [22]: 22.5 µM; GI50 [23]: < 0.01 µM; TGI [23]: 1.08 µM; GI50 [24]: 0.35 µM; TGI [24]: 5.88 µM; GI50 [25]: 11.4 µM; TGI [25]: 23.7 µM; GI50 [26]: 1 µM; TGI [26]: 16.4 µM; GI50 [27]: 0.0253 µM; TGI [27]: 0.433 µM; GI50 [28]: 2.14 µM; TGI [28]: 15.4 µM; GI50 [29]: 11.5 µM; TGI [29]: 23.9 µM; GI50 [30]: 12.4 µM; TGI [30]: 24.9 µM; GI50 [31]: 10.6 µM; TGI [31]: 22.5 µM; GI50 [32]: 10.2 µM; TGI [32]: 21.9 µM; GI50 [33]: < 0.01 µM; GI50 [34]: < 0.01 µM; TGI [34]: 1.44 µM; GI50 [35]: 0.309 µM; TGI [35]: 2.33 µM; GI50 [36]: 11.7 µM; TGI [36]: 24.1 µM; GI50 [37]: 6.55 µM; TGI [37]: 20.8 µM; GI50 [38]: 12 µM; TGI [38]: 24.5 µM; GI50 [39]: 0.348 µM; TGI [39]: 15.5 µM; GI50 [40]: 13.4 µM; TGI [40]: 26.5 µM; GI50 [41]: 4.06 µM; TGI [41]: 18.3 µM; GI50 [42]: 3.2 µM; TGI [42]: 20.5 µM; GI50 [43]: 2.88 µM; TGI [43]: 13.8 µM; GI50 [44]: 1.46 µM; TGI [44]: 14.3 µM; GI50 [45]: 0.246 µM; TGI [45]: 16.3 µM; GI50 [46]: 1.62 µM; TGI [46]: 15.5 µM; GI50 [47]: 11.5 µM; TGI [47]: 23.7 µM; GI50 [48]: 3.42 µM; TGI [48]: 20.7 µM; GI50 [49]: 0.983 µM; TGI [49]: 15.8 µM; GI50 [50]: 0.3 µM; TGI [50]: 10.4 µM; GI50 [51]: 11.5 µM; TGI [51]: 23.8 µM; GI50 [52]: < 0.01 µM; TGI [52]: 2.59 µM; GI50 [53]: 4.18 µM; TGI [53]: 19.5 µM; GI50 [54]: 12.6 µM; TGI [54]: 25.4 µM; GI50 [55]: 1.85 µM; TGI [55]: 10.4 µM; GI50 [56]: 11 µM; TGI [56]: 23 µM; GI50 [57]: 13.8 µM; TGI [57]: 27 µM; GI50 [58]: 11.4 µM; TGI [58]: 23.8 µM

Q: Which GI50 [59] does the source give for `Cc1cc(OCCOCCC(F)(F)P(=O)(O)O)ccc1CCc1cnc2c(N)nc3cc(CCC(=O)O)ccc3c2c1` here?
A: Its GI50 is 9.35 µM.

Q: And the TGI [59]?
A: The TGI was 29.3 µM.

Q: What about the GI50 [12] of the same compound?
A: The GI50 was 7.12 µM.

Q: What about the GI50 [21] of the same compound?
A: The GI50 was > 100 µM.

Q: And the TGI [21]?
A: Its TGI is > 100 µM.

Q: What about the GI50 [25] of the same compound?
A: The GI50 was > 100 µM.

Q: And the TGI [25]?
A: The TGI was > 100 µM.

Q: What about the GI50 [28] of the same compound?
A: Its GI50 is 99.7 µM.

Q: What about the TGI [28] of the same compound?
A: Its TGI is > 100 µM.

Q: And the GI50 [30]?
A: Its GI50 is > 100 µM.

Q: And the TGI [30]?
A: The TGI was > 100 µM.

Q: And the GI50 [33]?
A: The GI50 was 58.1 µM.

Q: What about the TGI [33] of the same compound?
A: Its TGI is > 100 µM.

Q: And the GI50 [39]?
A: Its GI50 is 34.3 µM.

Q: What about the TGI [39] of the same compound?
A: The TGI was > 100 µM.

Q: What about the GI50 [43] of the same compound?
A: The GI50 was > 100 µM.

Q: What about the TGI [43] of the same compound?
A: The TGI was > 100 µM.

Q: What about the GI50 [50] of the same compound?
A: The GI50 was 37.7 µM.

Q: What about the TGI [50] of the same compound?
A: Its TGI is > 100 µM.

Q: And the GI50 [51]?
A: Its GI50 is > 100 µM.

Q: And the TGI [51]?
A: The TGI was > 100 µM.

Q: And the GI50 [57]?
A: Its GI50 is > 100 µM.

Q: And the TGI [57]?
A: Its TGI is > 100 µM.

Reference: PubChem BioAssay (NCI)
